Results: patent US20120156185A1, “NUTRITIONAL COMPOSITIONS COMPRISING CITRUS FIBERS” (HERBAMED LTD., priority 2009, published 2012)
Where “and” joins values, the source holds several entries; their conditions need not be identical. Equal values may be shown once.

Test: Oxygen radical absorbance capacity (ORAC) assay
Description: ORAC assay for fresh orange crush and dry flake extracts was carried out following the modified procedure of the method previously described by Prior et al (Prior R L. et al. 2003. J Agric Food Chem 5, 3273-3279). This assay measures the ability of antioxidant components in test materials to inhibit the decline in disodium fluorescein (FL) fluorescence that is induced by the peroxyl radical generator 2′,2′-Azobis (2-amidinopropane) dihydrochloride (AAPH). The reaction was obtained on fluorescent plate reader (Synergy HT, Bio-Tek Instruments, Winooski, Vt., USA). The mixture contained in the final assay mixture 200 μL of total volume, FL, 120 μL, […] and AAPH, 60 μL 32 mM final concentration. All reagents were prepared with 75 mM phosphate buffer, pH 7.4. FL, phosphate buffer and samples were pre-incubated at 37° C. for 15 min. The reaction was started by the addition of AAPH. Fluorescence was measured and recorded every 1.5 min at excitation length of 485 nm and emission length of 535 nm, until the fluorescence of the last reading declined to a value of less than or equal to 5% of the first reading. Phosphate buffer was used as a blank and 2.5-40 μM trolox were used as positive control standards. The final ORAC values were calculated by using a regression equation between the trolox concentration and the net area under the FL decay curve and were expressed as trolox equivalents (TE) as μmole per 100 g of fresh weight (FW) or dry weight (DW).
In both compounds the measured inhibition time was directly proportional to the concentration of the antioxidant. In the tasted concentration range 2.5, 5.0, 10.0 μM of trolox the Tinh were 14.6, 20.9, and 25.5 respectively. For comparison Tinh for 2.5, 5.0, 10.0 μM of hesperidin were 26.8, 45.0 and 62.5 min respectively. […] In ORAC assay Tinh measures the ability of antioxidant components in test materials to inhibit the decline in disodium fluorescein (FL) fluorescence that is induced by the peroxyl radical generator 2′,2′-Azobis (2-amidinopropane) dihydrochloride (AAPH). Tinh for 10 μM of hesperidin and 10 μM of trolox were 62.5 and 23.5 min respectively. […] Higher correlation was observed between Hesperidin concentration and its antioxidant capacity.

Compound | Tinh (inhibition time, antioxidant capacity) (2.5 μM) [min] | Tinh (inhibition time, antioxidant capacity) (5.0 μM) [min] | Tinh (inhibition time, antioxidant capacity) (10 μM)
COc1ccc([C@@H]2CC(=O)c3c(O)cc(O[C@@H]4O[C@H](CO[C@@H]5O[C@@H](C)[C@H](O)[C@@H](O)[C@H]5O)[C@@H](O)[C@H](O)[C@H]4O)cc3O2)cc1O [hesperidin] | 26.8 | 45.0 | 62.5 min
Cc1c(C)c2c(c(C)c1O)CCC(C)(C(=O)O)O2 (stereo not drawn) [trolox, 6-hydroxy-2,5,7,8,-tetramethylchroman-2-carboxylic acid] | 14.6 | 20.9 | 25.5 min and 23.5 min
